{"source": "patent US9233921B2", "about": "“Potent poxvirus inhibitor” (priority 2013, dated 2016)", "key": {"vaccinia virus": {"system": "vaccinia virus", "experiment": "microbe, parasite or virus in culture", "assay_type": "cell-based, Vaccinia virus (WR strain)"}, "Cytotoxicity (CC50)": {"experiment": "Cytotoxicity (CC50)", "conditions": "African green monkey, BSC-1 cells"}, "[1]": {"conditions": "Orthopoxvirus vaccinia, BSC-1, read-out: IC50 (antiviral)"}}, "note": "Read-outs that look alike come from different tables or passages of the source.", "data": [{"compound": "COc1ccc(Sc2c(C(=O)O)[nH]c3cccc(C)c23)cc1", "note": "[Compound 19, 3-((4-Methoxyphenyl)thio)-4-methyl-1H-indole-2-carboxylic acid]", "values": [{"measurement": "IC50 (antiviral)", "setting": "vaccinia virus", "result": "failed to show antiviral activities"}]}, {"compound": "COC(=O)c1[nH]c2cc(C)ccc2c1Sc1ccc(Cl)cc1", "note": "[Compound 6, Methyl 3-((4-chlorophenyl)thio)-6-methyl-1H-indole-2-carboxylate]", "values": [{"measurement": "IC50", "setting": "vaccinia virus; [1]", "result": 19, "unit": "µM"}, {"measurement": "CC50", "setting": "Cytotoxicity (CC50)", "result": 61, "unit": "µM"}]}, {"compound": "COC(=O)c1[nH]c2cccc(C)c2c1Sc1ccc(Cl)cc1", "note": "[Compound 9, Methyl 3-((4-chlorophenyl)thio)-4-methyl-1H-indole-2-carboxylate]", "values": [{"measurement": "IC50", "setting": "vaccinia virus; [1]", "result": 21, "unit": "µM"}]}, {"compound": "Cc1ccc(C)c2c(Sc3ccc(Cl)cc3)c(C(=O)O)[nH]c12", "note": "[Compound 1j, 3-((4-chlorophenyl)thio)-4,7-dimethyl-1H-indole-2-carboxylic acid]", "values": [{"measurement": "IC50", "setting": "vaccinia virus; [1]", "result": 50, "unit": "µM"}, {"measurement": "CC50", "setting": "Cytotoxicity (CC50)", "result": 109, "unit": "µM"}]}, {"compound": "Cc1ccc2[nH]c(C(=O)O)c(Sc3ccc(Cl)cc3)c2c1", "note": "[Compound 1b, 3-((4-Chlorophenyl)thio)-5-methyl-1H-indole-2-carboxylic acid]", "values": [{"measurement": "IC50", "setting": "vaccinia virus; [1]", "result": "46 to 86", "unit": "µM"}, {"measurement": "IC50", "setting": "vaccinia virus; read-out: IC50 (antiviral)", "result": 46, "unit": "µM"}, {"measurement": "CC50", "setting": "Cytotoxicity (CC50)", "result": 136, "unit": "µM"}]}, {"compound": "Cc1cccc2c(Sc3cc(Cl)c(Cl)cc3Cl)c(C(=O)O)[nH]c12", "note": "[Compound 30a, 7-Methyl-3-((2,4,5-trichlorophenyl)thio)-1H-indole-2-carboxylic acid]", "values": [{"measurement": "IC50", "setting": "vaccinia virus; [1]", "result": 21, "unit": "µM"}, {"measurement": "CC50", "setting": "Cytotoxicity (CC50)", "result": 93, "unit": "µM"}]}, {"compound": "Cc1ccc2c(Sc3cccc(Cl)c3)c(C(=O)O)[nH]c2c1", "note": "[Compound 18a, 3-((3-Chlorophenyl)thio)-6-methyl-1H-indole-2-carboxylic acid]", "values": [{"measurement": "IC50", "setting": "vaccinia virus; [1]", "result": 51, "unit": "µM"}]}, {"compound": "CCc1ccc2c(Sc3cc(Cl)cc(Cl)c3)c(C(=O)O)[nH]c2c1", "note": "[Compound 25, 3-((3,5-Dichlorophenyl)thio)-6-ethyl-1H-indole-2-carboxylic acid]", "values": [{"measurement": "IC50", "setting": "vaccinia virus; [1]", "result": 9, "unit": "µM"}, {"measurement": "CC50", "setting": "Cytotoxicity (CC50)", "result": 63, "unit": "µM"}]}, {"compound": "Cc1ccc2c(Sc3cc(Cl)c(Cl)cc3Cl)c(C(=O)O)[nH]c2c1", "note": "[Compound 30, 6-Methyl-3-((2,4,5-trichlorophenyl)thio)-1H-indole-2-carboxylic acid]", "values": [{"measurement": "IC50", "setting": "vaccinia virus; [1]", "result": 25, "unit": "µM"}, {"measurement": "CC50", "setting": "Cytotoxicity (CC50)", "result": 78, "unit": "µM"}]}, {"compound": "COc1ccc(Sc2c(C(=O)O)[nH]c3cc(C)ccc23)cc1", "note": "[Compound 18e, 3-((4-Methoxyphenyl)thio)-6-methyl-1H-indole-2-carboxylic acid]", "values": [{"measurement": "IC50 (antiviral)", "setting": "vaccinia virus", "result": "failed to show antiviral activities"}]}, {"compound": "3-((3,5-Dichlorophenyl)thio)-6-methyl-1H-indole-2-carboxylate [Compound 27]", "values": [{"measurement": "IC50 (antiviral)", "setting": "vaccinia virus", "result": "loss of activity"}]}, {"compound": "O=C(O)c1[nH]c2ccccc2c1Sc1ccc(Cl)cc1", "note": "[Compound 1d, 3-(4-Chlorophenylthio)-1H-indole-2-carboxylic acid]", "values": [{"measurement": "IC50 (antiviral)", "setting": "vaccinia virus", "result": "loss of activity"}]}, {"compound": "O=C(O)c1[nH]c2cc(F)ccc2c1Sc1ccc(Cl)cc1", "note": "[Compound 1g, 6-Fluoro-3-((4-chlorophenyl)thio)-1H-indole-2-carboxylic acid]", "values": [{"measurement": "IC50", "setting": "vaccinia virus; [1]", "result": "40 to 51", "unit": "µM"}, {"measurement": "IC50", "setting": "vaccinia virus; read-out: IC50 (antiviral)", "result": 40, "unit": "µM"}]}, {"compound": "O=C(O)c1[nH]c2cc(Cl)ccc2c1Sc1ccc(Cl)cc1", "note": "[Compound 1e, 6-Chloro-3-((4-chlorophenyl)thio)-1H-indole-2-carboxylic acid]", "values": [{"measurement": "IC50", "setting": "vaccinia virus; [1]", "result": "40 to 51", "unit": "µM"}, {"measurement": "IC50", "setting": "vaccinia virus; read-out: IC50 (antiviral)", "result": 47, "unit": "µM"}, {"measurement": "CC50", "setting": "Cytotoxicity (CC50)", "result": 138, "unit": "µM"}]}, {"compound": "CCc1ccc2c(Sc3ccc(Cl)cc3)c(C(=O)O)[nH]c2c1", "note": "[Compound 1h, 3-((4-Chlorophenyl)thio)-6-ethyl-1H-indole-2-carboxylic acid]", "values": [{"measurement": "IC50", "setting": "vaccinia virus; [1]", "result": 36, "unit": "µM"}]}, {"compound": "Cc1cccc2[nH]c(C(=O)O)c(Sc3ccc(Cl)cc3)c12", "note": "[Compound 1a, 3-((4-Chlorophenyl)thio)-4-methyl-1H-indole-2-carboxylic acid]", "values": [{"measurement": "IC50", "setting": "vaccinia virus; [1]", "result": "46 to 86", "unit": "µM"}, {"measurement": "IC50", "setting": "vaccinia virus; read-out: IC50 (antiviral)", "result": 86, "unit": "µM"}]}, {"compound": "CCc1ccc2c(Sc3ccc(Cl)c(Cl)c3)c(C(=O)O)[nH]c2c1", "note": "[Compound 23, 3-((3,4-Dichlorophenyl)thio)-6-ethyl-1H-indole-2-carboxylic acid]", "values": [{"measurement": "IC50", "setting": "vaccinia virus; [1]", "result": 42, "unit": "µM"}]}, {"compound": "COC(=O)c1ccc(Sc2c(C(=O)O)[nH]c3cccc(C)c23)cc1", "note": "[Compound 19b, 3-((4-(Methoxycarbonyl)phenyl)thio)-4-methyl-1H-indole-2-carboxylic acid]", "values": [{"measurement": "IC50 (antiviral)", "setting": "vaccinia virus", "result": "failed to show antiviral activities"}]}, {"compound": "Cc1ccc2c(Sc3ccc(C(=O)O)cc3)c(C(=O)O)[nH]c2c1", "note": "[Compound 18f, 3-((4-Carboxyphenyl)thio)-6-methyl-1H-indole-2-carboxylic acid]", "values": [{"measurement": "IC50 (antiviral)", "setting": "vaccinia virus", "result": "loss of activity"}]}, {"compound": "CNC(=O)c1[nH]c2cc(C)ccc2c1Sc1cc(Cl)cc(Cl)c1", "note": "[Compound 28, 3-((3,5-Dichlorophenyl)thio)-N,6-dimethyl-1H-indole-2-carboxamide]", "values": [{"measurement": "IC50 (antiviral)", "setting": "vaccinia virus", "result": "loss of activity"}]}, {"compound": "COC(=O)c1c(Sc2ccc(Cl)cc2)c2cc(C)ccc2n1C", "note": "[Compound 4, Methyl 3-((4-chlorophenyl)thio)-1,5-dimethyl-1H-indole-2-carboxylate]", "values": [{"measurement": "IC50", "setting": "vaccinia virus; [1]", "result": 163, "unit": "µM"}]}, {"compound": "Cc1cccc2c(Sc3ccc(Cl)cc3)c(C(=O)O)[nH]c12", "note": "[Compound 1c, 3-((4-Chlorophenyl)thio)-7-methyl-1H-indole-2-carboxylic acid]", "values": [{"measurement": "IC50", "setting": "vaccinia virus; [1]", "result": "46 to 86", "unit": "µM"}, {"measurement": "IC50", "setting": "vaccinia virus; read-out: IC50 (antiviral)", "result": 74, "unit": "µM"}]}, {"compound": "Cc1ccc2c(c1)c(Sc1ccc(Cl)cc1)c(C(=O)O)n2C", "note": "[Compound 2, 3-((4-Chlorophenyl)thio)-1,5-dimethyl-1H-indole-2-carboxylic acid]", "values": [{"measurement": "IC50", "setting": "vaccinia virus; [1]", "result": 135, "unit": "µM"}]}, {"compound": "Cc1ccc(Sc2c(C(=O)O)[nH]c3cc(C)ccc23)cc1", "note": "[Compound 18d, 6-Methyl-3-(p-tolylthio)-1H-indole-2-carboxylic acid]", "values": [{"measurement": "IC50 (antiviral)", "setting": "vaccinia virus", "result": "failed to show antiviral activities"}]}, {"compound": "Cc1ccc2c(Sc3ccc(C(F)(F)F)cc3[N+](=O)[O-])c(C(=O)O)[nH]c2c1", "note": "[Compound 31, 6-Methyl-3-((2-nitro-4-(trifluoromethyl)phenyl)thio)-1H-indole-2-carboxylic acid]", "values": [{"measurement": "IC50 (antiviral)", "setting": "vaccinia virus", "result": "loss of activity"}]}, {"compound": "CCn1c(C(=O)OC)c(Sc2ccc(Cl)cc2)c2cc(C)ccc21", "note": "[Compound 5, Methyl 3-((4-chlorophenyl)thio)-1-ethyl-5-methyl-1H-indole-2-carboxylate]", "values": [{"measurement": "fold improvement in activity of 5 over 3", "setting": "vaccinia virus", "result": 2, "unit": "fold"}, {"measurement": "fold improvement in activity over the corresponding R1 methyl analogs 2 and 4", "setting": "vaccinia virus", "result": 4, "unit": "fold"}, {"measurement": "IC50", "setting": "vaccinia virus; [1]", "result": 39, "unit": "µM"}]}, {"compound": "Cc1cccc2[nH]c(C(=O)O)c(Sc3ccc([N+](=O)[O-])cc3)c12", "note": "[Compound 19c, 4-Methyl-3-((4-nitrophenyl)thio)-1H-indole-2-carboxylic acid]", "values": [{"measurement": "IC50 (antiviral)", "setting": "vaccinia virus", "result": "loss of activity"}]}, {"compound": "Cc1ccc(Sc2c(C(=O)O)[nH]c3cccc(C)c23)cc1", "note": "[Compound 19a, 4-Methyl-3-(p-tolylthio)-1H-indole-2-carboxylic acid]", "values": [{"measurement": "IC50 (antiviral)", "setting": "vaccinia virus", "result": "failed to show antiviral activities"}]}, {"compound": "CCn1c(C(=O)O)c(Sc2ccc(Cl)cc2)c2cc(C)ccc21", "note": "[Compound 3, 3-((4-Chlorophenyl)thio)-1-ethyl-5-methyl-1H-indole-2-carboxylic acid]", "values": [{"measurement": "fold improvement in activity over the corresponding R1 methyl analogs 2 and 4", "setting": "vaccinia virus", "result": 1.5, "unit": "fold"}, {"measurement": "IC50", "setting": "vaccinia virus; [1]", "result": 86, "unit": "µM"}]}, {"compound": "Cc1ccc2c(Sc3ccccc3)c(C(=O)O)[nH]c2c1", "note": "[Compound 18, 6-Methyl-3-(phenylthio)-1H-indole-2-carboxylic acid]", "values": [{"measurement": "IC50 (antiviral)", "setting": "vaccinia virus", "result": "abolished its antiviral activity"}]}, {"compound": "Cc1ccc2c(Sc3cccc(F)c3)c(C(=O)O)[nH]c2c1", "note": "[Compound 18b, 3-((3-Fluorophenyl)thio)-6-methyl-1H-indole-2-carboxylic acid]", "values": [{"measurement": "IC50", "setting": "vaccinia virus; [1]", "result": 56, "unit": "µM"}, {"measurement": "IC50", "setting": "vaccinia virus; read-out: IC50 (antiviral)", "result": 69, "unit": "µM"}]}, {"compound": "COc1cccc2[nH]c(C(=O)O)c(Sc3ccc(Cl)cc3)c12", "note": "[Compound 1i, 3-((4-Chlorophenyl)thio)-4-methoxy-1H-indole-2-carboxylic acid]", "values": [{"measurement": "IC50 (antiviral)", "setting": "vaccinia virus", "result": "loss of activity"}]}]}
